{"source": "paper PMC3760808", "about": "“A New Approach to Control the Enigmatic Activity of Aldose Reductase” (PLoS ONE, 2013)", "key": {"purified bovine lens AR [1]": {"target": "T1, purified bovine lens AR (Bos taurus, UniProt P16116)", "T1 construct": "AR was purified from bovine lens to electrophoretic homogeneity as described; from tissue; host or cells: bovine lens", "experiment": "AR inhibition screening with GAL and HNE as substrates (differential inhibition)", "format": "biochemical", "conditions": "for inhibitory action on all the tested substrates (in words): substrates GAL, HNE, glucose (and GS-HNE), Figure 4; for GAL/HNE differential inhibition (percentage inhibition with GAL minus percentage inhibition with HNE): 0.11 mM GAL vs 0.11 mM HNE, at inhibitor concentration giving 50% inhibition or maximal concentration tested", "method": "(§1) If not otherwise specified AR activity was determined at 37°C using 4.7 mM D, L-GAL as a substrate in 0.25 M sodium phosphate buffer pH 6.8 containing 0.38 M ammonium sulfate, 0.5 mM EDTA, and 0.2 mM NADPH. AR was purified from bovine lens to electrophoretic homogeneity as described. […] One unit of enzyme activity is the amount of enzyme that catalyzes the oxidation of 1 µmol of NADPH/min under the above-mentioned conditions. The k cat values were obtained on the basis of a molecular weight of AR of 34 KDa. The purified enzyme was stored at 4°C in a 10 mM sodium phosphate buffer pH 7.0 supplemented by 2 mM dithiothreitol and was extensively dialyzed against a 10 mM sodium phosphate buffer pH 7.0 before use.\nThe nominal concentrations of HNE and GS-HNE solutions used as substrates of AR were determined through a colorimetric assay. […] When testing inhibitors that require DMSO to be solubilized, the same concentration of DMSO (0.7% v/v), was used in the assays both in the presence and absence of the inhibitors.\nThus, the susceptibility of AR to the inhibition exerted by a series of compounds (including some well-known ARIs) was tested at various inhibitor concentrations, using both GAL and HNE as substrates. The results of this screening (Figure 2) are expressed as ”GAL/HNE differential inhibition”, i.e. the difference between the percentage inhibition observed using GAL as a substrate and the percentage inhibition observed using HNE as a substrate. This differential inhibition was calculated at the concentration of the inhibitor leading to 50% inhibition or, when 50% inhibition was not reached, at the maximal concentration tested.\nBars indicate the difference between the percentage inhibition observed using 0.11 mM GAL as substrate and the percentage inhibition using 0.11 mM HNE (differential inhibition). The difference was calculated at the concentration of the inhibitor leading to a 50% inhibition of the reaction more sensitive to the inhibitor (i.e. the reduction of GAL for compounds displaying a positive differential inhibition and the reduction HNE for compounds displaying a negative differential inhibition) or at the maximal concentration tested if 50% inhibition was not reached. […] Framed numbers (1 to 30) refer to the compounds tested as inhibitors."}, "purified bovine lens AR [2]": {"target": "T1, purified bovine lens AR", "experiment": "AR inhibition with GS-HNE as substrate", "format": "biochemical", "method": "as §1, with “The purified enzyme was stored at 4°C in a 10 mM sodium phosphate buffer pH 7.0 supplemented by 2 mM dithiothreitol and was extensively dialyzed against a 10 mM sodium phosphate buffer pH 7.0 before use.” left out\nThe nominal concentrations of HNE and GS-HNE solutions used as substrates of AR were determined through a colorimetric assay. These values were confirmed by the total decrease in absorbance at 340 nm measured, in the presence of 0.2 mM NADPH, when HNE and GS-HNE were incubated in the presence of 8 and 150 mU of AR, respectively (Figure S1). […]\nFigure 3 Effect of D-glyceramide as differential AR inhibitor. Percentage residual activity was determined at various inhibitor concentrations using the following substrates: 0.11 mM of HNE (squares), GAL (diamonds), GS-HNE (circles) or 7 mM D-glucose (triangles). […]\nFigure 5 Effect of compounds acting as differential AR inhibitors. Percentage residual activity was determined at various inhibitor concentrations using the following substrates: 0.11 mM HNE (squares), GAL (diamonds), GS-HNE (circles) or 7 mM D-glucose (triangles). […]"}, "purified bovine lens AR [3]": {"target": "T1, purified bovine lens AR", "experiment": "AR inhibition with D-glucose as substrate", "format": "biochemical", "method": "as §1\n(§2) The nominal concentrations of HNE and GS-HNE solutions used as substrates of AR were determined through a colorimetric assay. These values were confirmed by the total decrease in absorbance at 340 nm measured, in the presence of 0.2 mM NADPH, when HNE and GS-HNE were incubated in the presence of 8 and 150 mU of AR, respectively (Figure S1). When testing inhibitors that require DMSO to be solubilized, the same concentration of DMSO (0.7% v/v), was used in the assays both in the presence and absence of the inhibitors.\nFigure 3 Effect of D-glyceramide as differential AR inhibitor. Percentage residual activity was determined at various inhibitor concentrations using the following substrates: 0.11 mM of HNE (squares), GAL (diamonds), GS-HNE (circles) or 7 mM D-glucose (triangles). Error bars represent the standard deviations from at least three independent measurements.\nFigure 5 Effect of compounds acting as differential AR inhibitors. Percentage residual activity was determined at various inhibitor concentrations using the following substrates: 0.11 mM HNE (squares), GAL (diamonds), GS-HNE (circles) or 7 mM D-glucose (triangles). Panels a and b refer to compounds 18 and 19, respectively. Error bars represent the standard deviations from at least three completely independent measurements including different enzyme preparations. […]"}, "bovine lens AR": {"target": "T2, bovine lens AR (Bos taurus, UniProt P16116)", "T2 construct": "AR was purified from bovine lens to electrophoretic homogeneity as described; from tissue; host or cells: bovine lens", "experiment": "Kinetic parameters of substrate reduction by AR (double reciprocal plots)", "format": "biochemical", "conditions": "8 mU purified AR, pH 6.8, 37°C", "method": "as §1, §2\nFigure 1 Double reciprocal plots for reduction of GAL, HNE and GS-HNE by bovine lens AR. Double reciprocal plots of initial rate measurements using of GAL (diamonds), HNE (squares) and GS-HNE (circles) as substrates. The assays were performed in standard conditions using 8 mU of purified AR. Error bars represent the standard deviations from at least three independent measurements."}, "human skeletal muscle AR": {"system": "human skeletal muscle AR", "set-up": "method as in PMID 9890881, PMID 7599164", "conditions": "human skeletal muscle enzyme; cited from earlier work"}, "[4]": {"system": "human placental recombinant AR", "set-up": "method as in PMID 9890881, PMID 7599164", "conditions": "human placental recombinant enzyme; cited from earlier work"}, "AR from bovine lens": {"system": "AR from bovine lens", "set-up": "method as in PMID 8554593, PMID 9445372", "conditions": "pH 6.0; cited from earlier work"}, "AR from bovine heart": {"system": "AR from bovine heart", "set-up": "method as in PMID 8554593, PMID 9445372", "conditions": "pH 6.0; cited from earlier work"}}, "data": [{"smiles": "NC(=O)[C@H](O)CO", "note": "[Compound 21, D-Glyceramide]", "values": [{"measurement": "IC50", "setting": "purified bovine lens AR [1]; GAL as substrate, read-out: IC50 with GAL as substrate", "result": "~10", "unit": "mM"}, {"measurement": "IC50", "setting": "purified bovine lens AR [2]; 0.11 mM GS-HNE as substrate, read-out: IC50, reduction of GS-HNE", "result": "~8", "unit": "mM"}, {"measurement": "differential inhibition glucose/HNE (in words)", "setting": "purified bovine lens AR [3]; 7 mM D-glucose vs 0.11 mM HNE, Figure 3", "result": "observed only at rather high concentrations"}]}, {"smiles": "O=C[C@@H](O)CO", "note": "[GAL, D, L-glyceraldehyde]", "values": [{"measurement": "Km", "setting": "bovine lens AR", "result": "39 ± 4", "unit": "µM"}, {"measurement": "k cat", "setting": "bovine lens AR", "result": "0.783 ± 0.05", "unit": "s⁻¹"}]}, {"smiles": "O=C(O)c1cn(Cc2ccccc2)c2ccnn2c1=O", "note": "[Compound 18]", "values": [{"measurement": "inhibition of the AR catalyzed reduction of GS-HNE (in words)", "setting": "purified bovine lens AR [2]; 0.11 mM GS-HNE, Figure 5", "result": "able to inhibit, to a different extent"}, {"measurement": "type of inhibition, glucose reduction", "setting": "purified bovine lens AR [3]; 47 µM inhibitor, double reciprocal plots", "result": "competitive inhibition"}]}, {"smiles": "O=c1cc(-c2ccccc2)nc2cccc(O)n12", "note": "[Compound 3]", "values": [{"measurement": "inhibitory action on all the tested substrates (in words)", "setting": "purified bovine lens AR [1]", "result": "inhibits the AR catalyzed reduction of all the tested substrates"}]}, {"smiles": "NC(=O)[C@H](O)[C@@H](O)[C@H](O)[C@H](O)CO", "note": "[Compound 26, D gluconamide, reference compound]", "values": [{"measurement": "GAL/HNE differential inhibition (percentage inhibition with GAL minus percentage inhibition with HNE)", "setting": "purified bovine lens AR [1]", "result": "significant"}, {"measurement": "effect on glucose reduction", "setting": "purified bovine lens AR [3]; data not shown", "result": "no effect"}]}, {"smiles": "O=C1NC(=O)[C@@]2(CCOc3ccc(F)cc32)N1", "note": "[Compound 29, Sorbinil]", "values": [{"measurement": "GAL/HNE differential inhibition (percentage inhibition with GAL minus percentage inhibition with HNE)", "setting": "purified bovine lens AR [1]", "result": "negligible"}, {"measurement": "inhibitory action on all the tested substrates (in words)", "setting": "purified bovine lens AR [1]", "result": "potent inhibitory action on all the tested substrates"}]}, {"smiles": "CCCCCC(O)/C=C/C=O", "note": "(stereo not drawn) [HNE, 4-hydroxy-2,3-nonenal]", "values": [{"measurement": "Km", "setting": "bovine lens AR", "result": "37 ± 1", "unit": "µM"}, {"measurement": "k cat", "setting": "bovine lens AR", "result": "0.8 ± 0.017", "unit": "s⁻¹"}, {"measurement": "Km", "setting": "human skeletal muscle AR", "result": 22, "unit": "µM"}, {"measurement": "Km", "setting": "[4]", "result": "28 ± 9", "unit": "µM"}, {"measurement": "Km", "setting": "AR from bovine lens", "result": "8.8 ± 0.9", "unit": "µM"}, {"measurement": "Km", "setting": "AR from bovine heart", "result": "7 ± 2", "unit": "µM"}]}, {"smiles": "CCCCCC(O)C(CC=O)SC[C@H](NC(=O)CC[C@H](N)C(=O)O)C(=O)NCC(=O)O", "note": "(stereo partly drawn) [GS-HNE, 3-glutathionyl-4-hydroxy-nonanal]", "values": [{"measurement": "Km", "setting": "bovine lens AR", "result": "105 ± 6", "unit": "µM"}, {"measurement": "k cat", "setting": "bovine lens AR", "result": "0.683 ± 0.033", "unit": "s⁻¹"}]}, {"smiles": "CC(/C=C1\\SC(=S)N(CC(=O)O)C1=O)=C\\c1ccccc1", "note": "[Compound 30, Epalrestat]", "values": [{"measurement": "IC50", "setting": "purified bovine lens AR [1]", "result": 0.0005, "unit": "mM"}]}]}
